Results from the NIST ThermoML archive (doi:10.1016/j.fluid.2011.07.007).
Values joined by “and” are separate entries in the source; they are usually repeats but may differ in a detail not shown here. Equal entries are not always repeated. Structures can show the parent of a compound that is named as a salt. Numbers after ± are expanded uncertainties.

Conditions: Transpiration method

CC(C)OC(=O)CCCC(=O)OC(C)C [bis(1-methylethyl) pentanedioate]
Liquid
Conditions	vapor or sublimation pressure [kPa]
294.5 K	0.00137 ± 0.00011
297.5 K	0.00175 ± 0.00014
300.5 K	0.00246 ± 0.0002
303.4 K	0.00328 ± 0.00026
306.4 K	0.00433 ± 0.00035
309.5 K	0.00594 ± 0.00045
312.5 K	0.00714 ± 0.00055
315.5 K	0.00958 ± 0.00076
318.6 K	0.0126 ± 0.001
322.7 K	0.017 ± 0.0013
324.4 K	0.0199 ± 0.0015
327.4 K	0.0251 ± 0.0019

CC(C)(C)OC(=O)CCCC(=O)OC(C)(C)C [di-tert-butyl glutarate]
Liquid
Conditions	vapor or sublimation pressure [kPa]
295.2 K	0.00104 ± 9e-05
297.2 K	0.0013 ± 0.00011
299.2 K	0.00157 ± 0.00012
301.2 K	0.00187 ± 0.00015
303.2 K	0.00231 ± 0.00018
305.2 K	0.00276 ± 0.00022
307.2 K	0.00334 ± 0.00026
309.2 K	0.00393 ± 0.00031
311.2 K	0.00471 ± 0.00038
313.2 K	0.00581 ± 0.00045
315.2 K	0.00674 ± 0.00052
317.2 K	0.00801 ± 0.00061
319.2 K	0.00909 ± 0.00068
321.2 K	0.0104 ± 0.0008
323.2 K	0.0123 ± 0.001
325.2 K	0.0152 ± 0.0012

CC(C)OC(=O)CC(=O)OC(C)C [diisopropyl malonate]
Liquid
Conditions	vapor or sublimation pressure [kPa]
289.3 K	0.00784 ± 0.00064
292.5 K	0.0105 ± 0.0008
295.4 K	0.0139 ± 0.0011
298.4 K	0.0172 ± 0.0013
301.4 K	0.0228 ± 0.0018
304.4 K	0.0293 ± 0.0023
307.4 K	0.0375 ± 0.0029
310.4 K	0.0471 ± 0.0036
313.4 K	0.0581 ± 0.0044
315.4 K	0.0688 ± 0.0053
316.5 K	0.0757 ± 0.0057
318.5 K	0.0862 ± 0.0066
319.4 K	0.0965 ± 0.0072
321.5 K	0.1068 ± 0.0078
322.5 K	0.1138 ± 0.009
323.5 K	0.1282 ± 0.01
325.4 K	0.1468 ± 0.011

CC(C)(C)OC(=O)CC(=O)OC(C)(C)C [bis(1,1-dimethylethyl) propanedioate]
Liquid
Conditions	vapor or sublimation pressure [kPa]
293.7 K	0.00787 ± 0.00064
295.7 K	0.00952 ± 0.00075
298.6 K	0.0122 ± 0.001
301.7 K	0.0159 ± 0.0012
303.6 K	0.0186 ± 0.0014
306.6 K	0.023 ± 0.0017
308.6 K	0.0274 ± 0.0022
310.7 K	0.0337 ± 0.0027
312.6 K	0.0399 ± 0.0031
315.6 K	0.0494 ± 0.0036
317.6 K	0.055 ± 0.0042
319.6 K	0.0663 ± 0.0049
321.6 K	0.0714 ± 0.0053
323.6 K	0.0845 ± 0.0065
324.7 K	0.0934 ± 0.0071
327.6 K	0.1125 ± 0.0089
333.5 K	0.1828 ± 0.013
336.5 K	0.2131 ± 0.016
339.5 K	0.2702 ± 0.02
342.5 K	0.333 ± 0.025
345.5 K	0.3886 ± 0.028

CC(C)(C)OC(=O)CCCCC(=O)OC(C)(C)C [di-tert-butyl adipate]
Liquid
Conditions	vapor or sublimation pressure [kPa]
322.6 K	0.00711 ± 0.00055
323.4 K	0.00757 ± 0.00058
326.2 K	0.00926 ± 0.0007
329 K	0.0113 ± 0.00086
331.8 K	0.01428 ± 0.0011
336 K	0.01907 ± 0.0014
338 K	0.02216 ± 0.0017
341 K	0.02859 ± 0.0021
344 K	0.03272 ± 0.0024
346.9 K	0.04033 ± 0.0031
349.9 K	0.0511 ± 0.0038
352.9 K	0.06145 ± 0.0046
355.9 K	0.07647 ± 0.0057
358.9 K	0.09287 ± 0.0069
361.9 K	0.1117 ± 0.0079
362.4 K	0.1137 ± 0.0081
362.5 K	0.1144 ± 0.0082
366.3 K	0.1453 ± 0.011

CC(C)(C)OC(=O)CCC(=O)OC(C)(C)C [di-tert-butyl succinate]
Liquid
Conditions	vapor or sublimation pressure
323.2 K	0.0331 ± 0.0026 kPa
326.2 K	0.0419 ± 0.0032 kPa
331.2 K	0.0592 ± 0.0044 kPa
333.2 K	0.0697 ± 0.0054 kPa
335.2 K	0.0817 ± 0.006 kPa
337.2 K	0.0885 ± 0.0066 kPa
339.2 K	0.1043 ± 0.0079 kPa
341.2 K	0.1198 ± 0.0089 kPa
343.2 K	0.1351 ± 0.01 kPa
345.2 K	0.1498 ± 0.011 kPa and 0.1534 ± 0.011 kPa
347.2 K	0.1716 ± 0.013 kPa
349.2 K	0.2009 ± 0.015 kPa
351.2 K	0.2187 ± 0.016 kPa
353.2 K	0.2523 ± 0.019 kPa
355.2 K	0.2842 ± 0.021 kPa

CC(C)OC(=O)C(=O)OC(C)C [diisopropyl oxalate]
Liquid
Conditions	vapor or sublimation pressure [kPa]
287.5 K	0.0149 ± 0.0012
290.4 K	0.0197 ± 0.0016
293.3 K	0.0254 ± 0.002
297.3 K	0.035 ± 0.0027
300.3 K	0.0452 ± 0.0035
303.3 K	0.0576 ± 0.0044
306.3 K	0.0712 ± 0.0054
308.3 K	0.0846 ± 0.0066
311.2 K	0.1081 ± 0.0082
313.3 K	0.1266 ± 0.0094
316.3 K	0.151 ± 0.011
318.4 K	0.1722 ± 0.013
318.5 K	0.1731 ± 0.013
321.2 K	0.2066 ± 0.015
322.4 K	0.2247 ± 0.018
323.6 K	0.2533 ± 0.019
326.4 K	0.2884 ± 0.021
330.5 K	0.3766 ± 0.028

CC(C)(C)OC(=O)C(=O)OC(C)(C)C [di-tert-butyl oxalate]
Conditions	vapor or sublimation pressure [kPa]
293.8 K, Crystal	0.00391 ± 0.00038
296.7 K, Crystal	0.0058 ± 0.00049
299.7 K, Crystal	0.00793 ± 0.00065
302.7 K, Crystal	0.0109 ± 0.0009
305.7 K, Crystal	0.0154 ± 0.0013
308.3 K, Crystal	0.0201 ± 0.0019
308.8 K, Crystal	0.0217 ± 0.002
311.2 K, Crystal	0.0276 ± 0.0024
311.7 K, Crystal	0.0293 ± 0.0025
314.2 K, Crystal	0.0384 ± 0.0032
314.7 K, Crystal	0.0405 ± 0.0033
317.6 K, Crystal	0.0574 ± 0.0047
320.7 K, Crystal	0.0769 ± 0.006
323.2 K, Crystal	0.0956 ± 0.0076
323.6 K, Crystal	0.1 ± 0.0079
326.6 K, Crystal	0.1313 ± 0.01
329.6 K, Crystal	0.1637 ± 0.013
333.2 K, Crystal	0.2253 ± 0.023
333.7 K, Crystal	0.2468 ± 0.024
338.2 K, Crystal	0.3739 ± 0.028
338.6 K, Crystal	0.3689 ± 0.028
345.6 K, Liquid	0.4066 ± 0.03
346.7 K, Liquid	0.4358 ± 0.033
347.6 K, Liquid	0.4703 ± 0.034
348.6 K, Liquid	0.4816 ± 0.035
351.5 K, Liquid	0.5565 ± 0.041
351.7 K, Liquid	0.5963 ± 0.044
352.5 K, Liquid	0.6078 ± 0.044
354.5 K, Liquid	0.6715 ± 0.049
356.5 K, Liquid	0.7609 ± 0.056
357.5 K, Liquid	0.799 ± 0.059
360.7 K, Liquid	0.9613 ± 0.074
361.2 K, Liquid	1 ± 0.076
363.7 K, Liquid	1.053 ± 0.076
366.2 K, Liquid	1.252 ± 0.093
371.2 K, Liquid	1.638 ± 0.12

CC(C)OC(=O)CCC(=O)OC(C)C [bis(1-methylethyl) butanedioate]
Liquid
Conditions	vapor or sublimation pressure [kPa]
304.4 K	0.0113 ± 0.0009
307.4 K	0.0147 ± 0.0011
310.4 K	0.0186 ± 0.0014
313.4 K	0.0236 ± 0.0018
316.4 K	0.0301 ± 0.0023
318.5 K	0.0352 ± 0.0027
321.4 K	0.0448 ± 0.0034
323.4 K	0.0527 ± 0.004
326.4 K	0.0651 ± 0.0049
328.5 K	0.0749 ± 0.0058
331.4 K	0.096 ± 0.0073
333.3 K	0.1092 ± 0.0081
